Data published in EP4722363A1, “RNAI AGENT FOR INHIBITING ANGPTL3 EXPRESSION AND USE THEREOF” (YUN HO BIO CO., LTD, priority 2023, dated 2024).

Key:
ANGPTL3 Protein [1] = assay: PCH free uptake, inhibition of ANGPTL3, ELISA of supernatant; format: cell-based; settings: primary cynomolgus monkey hepatocytes, 72 hours
Experimental: PCH cells were resuscitated using 10% FBS InvitroGRO™ HT Medium, and subsequently, the cell density was adjusted to 3×10^5 cells/mL using 10% FBS InvitroGRO™ CP Medium. Then, 10 µL of the compound from the dilution plate was added to the cell culture plate, resulting in final compound concentrations of 25, 5, and 1 nM. The cells were seeded into a 96-well plate at a density of 27,000 cells per well (90 µL/well), with a final culture volume of 100 µL per well. The cells were cultured in a 5% CO2 incubator at 37 °C for 72 hours.
(§1) The supernatant from the PHH and PCH cultures from the previous steps was collected, transferred to a new 96-well V-bottom plate, and centrifuged. Human Angiopoietin-like 3 protein (hANGPTL3 protein; DANL30) ELISA test was performed according to the instructions of HANGPTL 3 protein Kit.
(§2) Data Analysis: Four Parameter Logistic method. This method constructs a standard curve by plotting, with the y-axis as the average absorbance of the standards and the x-axis as the concentration, drawing a best-fit curve through the points on the graph. The OD value of the log concentration of the sample's HANGPTL3 protein is determined against the best-fit line of the log concentration by regression analysis. [formula]
(§3) Sequences with good activity in Table 8 were evaluated for in vitro inhibitory activity against ANGPTL3 Protein in primary human hepatocytes (PHH) and primary cynomolgus monkey hepatocytes (PCH). Table 10. In Vitro Inhibitory Activity of MCPP-siRNAs against ANGPTL3 mRNA in PHH Cell Line

ANGPTL3 [2] = assay: In vivo efficacy of ANGPTL3 GalNAc-siRNAs in hANGPTL3 humanized mice; settings: 3 mg/kg subcutaneous on day 0; days 7, 14, 21, 28; normalized to day -1; compared to the control; Fig. 1
Experimental: To evaluate the in vivo efficacy of siRNA against ANGPTL3 in mice, female ANGPTL3 humanized mice (purchased from Shanghai Model Organisms Center, Inc.) were used for in vivo efficacy testing. Mice were randomly divided into 5 groups, with 5 mice per group: G1, Control (PBS) negative control group; G2, 2002-034-001 (3 mg/kg) treatment group; G3, 2008-010-001 (3 mg/kg) treatment group; G4, 2008-019-001 (3 mg/kg) treatment group; and G5, 2008-019-002 (3 mg/kg) treatment group.
On days -7 and -1, pre-dose plasma samples were obtained after a 4-hour fast. The above siRNA conjugates were diluted with saline and administered subcutaneously to the mice according to body weight on day 0. Plasma was collected after a 4-hour fast on days 7, 14, 21, and 28, respectively. The ANGPTL3 protein level in plasma was detected by ELISA (R&D Systems). Plasma triglycerides (TG), total cholesterol (CHO), high-density lipoprotein cholesterol (HDL-c), low-density lipoprotein cholesterol (LDL-c), alanine aminotransferase (ALT), and aspartate aminotransferase (AST) were tested by Shanghai Bikai Keyi Biotechnology Co., Ltd.
To evaluate the in vivo efficacy of the siRNAs against ANGPTL3 in mice, female ANGPTL3 humanized mice (purchased from Shanghai Model Organisms Center, Inc.) were used for the efficacy study. The mice were randomly allocated into five groups (n=5 per group) as follows: • G1: Control (PBS) negative control group; • G2: 2002-034-001 (3 mg/kg) treatment group; • G3: 2008-010-001 (3 mg/kg) treatment group; • G4: 2008-019-001 (3 mg/kg) treatment group; • G5: 2008-019-002 (3 mg/kg) treatment group.
The day of the first administration was designated as day 0. Accordingly, the day before administration was designated as day -1, and the day after administration as day 1.
On day -7, all mice were fasted for 4 hours, and mandibular blood was collected to obtain plasma for hANGPTL3 protein detection. […]
On day -1, pre-dose plasma samples were obtained after a 4-hour fast. […] The ANGPTL3 protein level in plasma was detected by ELISA (R&D Systems). […]

ANGPTL3 Protein [3] = assay: PHH free uptake, inhibition of ANGPTL3, ELISA of supernatant; format: cell-based; settings: primary human hepatocytes, 72 hours
Experimental: PHH cells were thawed and adjusted to a density of 6×10^5 cells/mL. Then, 10 µL of the compound from the dilution plate was added to the cell culture plate, resulting in final compound concentrations of 100, 40, 12.5, 5, and 2 nM. The cells were seeded into a 96-well plate at a density of 54,000 cells per well (90 µL/well), with a final culture volume of 100 µL per well. The cells were cultured in a 5% CO2 incubator at 37°C for 72 hours.
as §1, §2, §3

ANGPTL3 [4] = assay: In vivo efficacy of ANGPTL3 GalNAc-siRNA in HFD-induced hyperlipidemic cynomolgus monkeys; settings: single subcutaneous injection, normalized to pre-treatment, Fig. 2
Experimental: To evaluate the in vivo activity of siRNA against ANGPTL3, 6 HFD-induced hyperlipidemic cynomolgus monkeys were used for the experiment. Pre-dose serum samples were obtained after a 4-hour fast on days -7 and -14. The siRNA conjugate was diluted with saline and administered subcutaneously according to the experimental design on day 0. Blank saline was used as a negative control. Plasma was collected after a 4-hour fast on days 0, 7, 14, 28, 42, 49, and 56. Serum triglycerides were detected using an automatic biochemical analyzer.
The ANGPTL3 protein levels and triglyceride levels for each animal were normalized. For normalization, at a given time point, the ANGPTL3 protein and triglyceride levels of each animal were divided by the pre-treatment expression level of that animal (the average of the pre-experiment samples for that group) to determine the change in "normalization to pre-treatment".

Substance | Average Inhibition in PCH % (ANGPTL3 Protein [1]; 1nM) [%] | Average Inhibition in PCH % (ANGPTL3 Protein [1]; 5nM) [%] | Average Inhibition in PCH % (ANGPTL3 Protein [1]; 25nM) [%] | level of ANGPTL3 protein in the plasma (ANGPTL3 [2]) | level of total cholesterol (CHO) in the plasma (ANGPTL3 [2]) | level of triglycerides (TG) in the plasma (ANGPTL3 [2]) | IC50 (ANGPTL3 Protein [3]) [nM] | serum ANGPTL3 protein level (ANGPTL3 [4]) | triglyceride level (ANGPTL3 [4]; serum)
2008-010-001: GalNAc-conjugated modified ANGPTL3 siRNA, sense SEQ ID NO 40 (3'-YHZY12001), antisense SEQ ID NO 27 (sense GAGAAGAACUACAUAUAAA; antisense UUUAUAUGUAGUUCUUCUCAG; GalNAc conjugate YHZY12001 at sense 3', chemistry not fully specified) [Duplex 2008-010-001] | 62.75 | 74.73 | 78.39 | significantly reduced | significantly reduced | significantly reduced | 0.81 | significantly inhibited | significantly reduced
ARO-05488-003-NAG37: GalNAc-conjugated comparator ANGPTL3 siRNA, sense SEQ ID NO 44, antisense SEQ ID NO 45 (sense GCUCAACAUAUUUGAUCAGUA; antisense UACUGAUCAAAUAUGUUGAGC; GalNAc (NAG37) conjugate, chemistry not fully specified) [reference compound] | 28.48 | 49.83 | 60.00 | – | – | – | 7.19 | – | –
